# The supplement of paper PMC10307832
# Experiments:
# Assay in all cases: relative viability (nuclei count vs DMSO), 5 days (fraction); higher = more cells survive
# [1] = compound: O=C(Nc1c[nH]nc1-c1nc2ccc(CN3CCOCC3)cc2[nH]1)NC1CC1 [AT9283] + CS(=O)(=O)N1CCN(Cc2cc3nc(-c4cccc5[nH]ncc45)nc(N4CCOCC4)c3s2)CC1 [Pictilisib] (partner 1 µM)
# Summary of the method: (§1)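 Nuclei were stained with Hoechst during a one-step fixation (final 0.05% Triton X-100, 1% formaldehyde, 1 ug/ml Hoechst) carried out 5 days after dosing, then counted on 4× images. The cells, lung cancer lines in 1536-well plates, had been dosed by pin tool the day after seeding with one drug alone or a fixed anchor-drug dose plus five library-drug doses (not always all listed) in √10 steps. Relative viability is the nuclei count in treated wells divided by that in vehicle wells, and each value is the median of duplicate plates.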
# [2] = compound: O=C(Nc1c[nH]nc1-c1nc2ccc(CN3CCOCC3)cc2[nH]1)NC1CC1 [AT9283] + C[C@@H](Oc1cc(-c2cnn(C3CCNCC3)c2)cnc1N)c1c(Cl)ccc(F)c1Cl [Crizotinib] (partner 1 µM)
# Summary of the method: as §1
# [3] = compound: C#Cc1cccc(Nc2ncnc3cc(OCCOC)c(OCCOC)cc23)c1 [Erlotinib] + O=C(c1cc(Cc2n[nH]c(=O)c3ccccc23)ccc1F)N1CCN(C(=O)C2CC2)CC1 [Olaparib] (partner 8 µM)
# Summary of the method: as §1
# [4] = compound: O=C(Nc1c[nH]nc1-c1nc2ccc(CN3CCOCC3)cc2[nH]1)NC1CC1 [AT9283] + CC(=O)c1c(C)c2cnc(Nc3ccc(N4CCNCC4)cn3)nc2n(C2CCCC2)c1=O [Palbociclib] (partner 0.5 µM)
# Summary of the method: as §1
# [5] = compound: C#Cc1cccc(Nc2ncnc3cc(OCCOC)c(OCCOC)cc23)c1 [Erlotinib] + CC1(C)CCC(c2ccc(Cl)cc2)=C(CN2CCN(c3ccc(C(=O)NS(=O)(=O)c4ccc(N[C@H](CCN5CCOCC5)CSc5ccccc5)c(S(=O)(=O)C(F)(F)F)c4)cc3)CC2)C1 [Navitoclax] (partner 0.5 µM)
# Summary of the method: as §1
Cell Line,relative viability ([1]; first compound 0.003 µM),relative viability ([1]; first compound 0.03 µM),relative viability ([1]; first compound 0.09487 µM),relative viability ([1]; first compound 0.3 µM),relative viability ([2]; first compound 0.003 µM),relative viability ([2]; first compound 0.03 µM),relative viability ([2]; first compound 0.09487 µM),relative viability ([2]; first compound 0.3 µM),relative viability ([3]; first compound 0.02 µM),relative viability ([3]; first compound 0.2 µM),relative viability ([3]; first compound 0.6325 µM),relative viability ([3]; first compound 2 µM),relative viability ([4]; first compound 0.003 µM),relative viability ([4]; first compound 0.03 µM),relative viability ([4]; first compound 0.09487 µM),relative viability ([4]; first compound 0.3 µM),relative viability ([5]; first compound 0.02 µM),relative viability ([5]; first compound 0.2 µM),relative viability ([5]; first compound 0.6325 µM),relative viability ([5]; first compound 2 µM)
LC-2-ad,0.396,0.194,0.0807,0.0727,0.44,0.275,0.288,0.238,0.709,0.785,0.692,0.625,0.458,0.415,0.29,0.229,0.488,0.472,0.397,0.229
LCLC-97TM1,0.171,0.141,0.0991,0.114,0.273,0.157,0.128,0.121,0.45,0.352,0.508,0.321,0.199,0.201,0.106,0.0962,0.39,,0.464,0.391
LK-2,0.602,0.22,0.219,0.248,0.255,0.218,0.241,0.251,0.914,0.706,0.804,0.611,0.527,0.145,0.133,0.115,0.941,0.621,1.04,0.725
LOU-NH91,0.469,0.487,0.482,0.394,0.686,0.679,0.52,0.429,0.733,0.619,0.725,0.624,0.552,0.515,0.418,0.439,0.52,0.38,0.392,0.4
LU99A,0.293,0.185,0.152,0.164,0.492,0.28,0.185,0.168,0.309,0.29,0.252,0.208,0.358,0.226,0.14,0.139,0.937,0.784,0.725,0.746
LXF-289,0.727,0.668,0.0746,0.0864,0.829,0.511,0.151,0.138,1.15,1.12,1.12,1.04,0.608,0.647,0.254,0.152,0.904,0.991,0.933,0.869
NCI-H23,0.457,0.267,0.213,0.153,0.458,0.326,0.299,0.189,0.388,0.261,0.289,0.294,0.496,0.454,0.417,0.243,0.894,0.88,1.16,0.596
NCI-H322M,0.498,0.413,0.294,0.298,0.888,0.611,0.446,0.337,0.776,0.67,0.631,0.551,0.481,0.494,0.423,0.427,1.12,1.09,0.77,0.468
NCI-H460,0.305,0.302,0.0565,0.0907,0.729,0.786,0.0665,0.0361,0.453,0.345,0.425,0.363,0.146,0.191,0.0941,0.0475,1.09,0.867,1.44,
NCI-H520,0.259,0.247,0.216,0.171,0.692,0.322,0.285,0.182,0.413,0.343,0.37,0.335,0.238,0.2,0.142,0.127,1.17,1.11,1.29,1.12
NCI-H647,0.43,0.159,0.0749,0.085,1.01,0.357,0.201,0.121,0.556,0.541,0.594,0.243,0.395,0.363,0.126,0.131,1.42,0.955,1.5,0.991
NCI-H727,0.379,0.395,0.225,0.167,0.813,0.461,0.27,0.323,0.696,0.947,0.607,0.721,0.583,0.626,0.514,0.428,0.447,0.393,0.384,0.347
NCI-H838,0.544,0.265,0.182,0.216,0.877,0.367,0.246,0.186,0.823,0.766,0.859,0.726,0.257,0.227,0.154,0.138,1.26,1.11,1.27,1.05
NCI-H1355,0.435,0.345,0.168,0.159,1.03,0.992,0.529,0.199,0.796,0.709,0.684,0.558,0.395,0.404,0.376,0.152,1.02,0.9,0.812,0.675
NCI-H1437,0.439,0.468,0.12,0.126,1.04,0.732,0.443,0.243,0.638,0.646,0.607,0.612,0.319,0.354,0.206,0.193,,1.15,,0.976
NCI-H1650,0.586,0.273,0.178,0.218,1.01,0.596,0.267,0.217,0.821,0.685,0.61,0.644,0.38,0.404,0.242,0.237,1.15,1.23,1.14,0.924

Cell Line,relative viability ([1]; first compound 0.003 µM),relative viability ([1]; first compound 0.03 µM),relative viability ([1]; first compound 0.09487 µM),relative viability ([1]; first compound 0.3 µM),relative viability ([2]; first compound 0.003 µM),relative viability ([2]; first compound 0.03 µM),relative viability ([2]; first compound 0.09487 µM),relative viability ([2]; first compound 0.3 µM),relative viability ([3]; first compound 0.02 µM),relative viability ([3]; first compound 0.2 µM),relative viability ([3]; first compound 0.6325 µM),relative viability ([3]; first compound 2 µM),relative viability ([4]; first compound 0.003 µM),relative viability ([4]; first compound 0.03 µM),relative viability ([4]; first compound 0.09487 µM),relative viability ([4]; first compound 0.3 µM),relative viability ([5]; first compound 0.02 µM),relative viability ([5]; first compound 0.2 µM),relative viability ([5]; first compound 0.6325 µM),relative viability ([5]; first compound 2 µM)
NCI-H1651,0.59,0.572,0.24,0.255,0.856,0.897,0.505,0.411,0.171,0.188,0.173,0.145,0.476,0.502,0.534,0.237,1.04,0.861,1.11,0.934
NCI-H1666,0.351,0.326,0.267,0.274,1.08,0.777,0.377,0.311,0.787,0.793,0.676,0.645,0.619,0.691,0.524,0.534,0.999,0.817,0.407,0.347
NCI-H1734,0.406,0.271,0.299,0.221,0.725,0.335,0.246,0.216,0.61,0.588,0.583,0.545,0.336,0.281,0.227,0.233,0.852,0.795,0.907,0.75
NCI-H1755,0.437,0.395,0.296,0.261,0.891,0.718,0.433,0.385,0.942,0.892,0.888,0.818,0.434,0.463,0.469,0.499,1.02,1,0.976,
NCI-H1792,0.215,0.334,0.0902,0.0932,0.933,0.993,0.984,0.811,0.407,0.299,0.464,0.383,0.607,0.661,0.623,0.399,0.451,0.545,0.84,0.579
NCI-H1915,0.854,0.95,0.293,0.178,0.842,0.826,0.226,0.255,0.25,0.264,0.25,0.222,0.545,0.51,0.254,0.153,0.865,0.807,0.841,0.745
NCI-H1944,0.327,0.307,0.221,0.224,0.9,0.648,0.257,0.294,0.396,0.311,0.382,0.304,0.336,0.241,0.188,0.172,0.989,0.912,0.941,0.796
NCI-H1975,0.26,0.179,0.18,0.165,0.945,0.903,0.695,0.348,0.818,0.712,0.888,0.695,0.526,0.676,0.531,0.324,1.11,1.07,1.07,0.977
NCI-H1993,0.841,0.748,0.934,0.661,0.915,0.654,0.572,0.543,0.91,0.606,0.748,0.658,0.597,0.665,0.534,0.34,0.848,0.725,0.786,0.722
NCI-H2009,0.774,0.462,0.239,0.0896,0.967,0.446,0.26,0.248,0.783,0.73,0.792,0.627,0.235,0.174,0.0777,0.032,1.25,1.24,1.24,1.19
NCI-H2023,0.216,0.106,0.0878,0.111,0.704,0.471,0.196,0.123,0.46,0.43,0.54,0.432,0.417,0.327,0.258,0.139,1.01,1.02,0.916,0.837
NCI-H2085,0.404,0.417,0.19,0.196,0.865,0.693,0.471,0.328,0.754,0.768,0.655,0.619,0.498,0.473,0.413,0.319,1.23,0.988,0.893,0.808
NCI-H2087,0.677,0.413,0.21,0.208,0.795,0.554,0.401,0.326,0.622,0.576,0.576,0.469,0.218,0.234,0.117,0.121,1.14,0.913,0.899,0.904
NCI-H2126,0.48,0.493,0.375,0.26,0.943,1.02,0.69,0.465,0.872,0.851,0.729,0.718,0.341,0.35,0.365,0.272,0.879,0.707,0.537,0.402
NCI-H2170,0.309,0.234,0.176,0.151,1.22,0.73,0.236,0.198,0.651,0.602,0.476,0.309,0.446,0.37,0.198,0.148,0.513,0.377,0.451,0.216
